# Test results reported in article PMC9114115, “Property space mapping of Pseudomonas aeruginosa permeability to small molecules” (Scientific Reports, 2022).
# Several values for one entry are separate records, joined by “and”; a condition that tells them apart may be missing. Identical values can stand only once. Counter-ions that a name gives are not always drawn. Like-named read-outs stand apart in the source and are kept apart here.
# Key:
# P. aeruginosa PΔ3-Pore = assay: MIC by two-fold dilution, barrierless PΔ3-Pore; assay type: cell-based, Pseudomonas aeruginosa; conditions: for MIC: Pseudomonas aeruginosa, read-out: MICs, P∆3-Pore, MOPS-M9 medium; for MICs: P∆3-Pore, LB broth, Table S2
# Experimental: (§1) In all experiments, P. aeruginosa PAO1-Pore (PAO1 attTn7::PLAC-fhuA) and PΔ3-Pore (ΔmexAB ΔmexCD ΔmexXY attTn7::PLAC-fhuA) strains were used[29]. Strains were routinely grown in Luria–Bertani (LB) or MOPS-M9 medium at 37 °C with aeration. MICs shown in Tables 1 and 2 were determined by a two-fold dilution method in LB broth and MOPS-M9 medium, respectively, following the previously described protocol.
# [1] = test system: P. aeruginosa PΔ3-Pore cells; assay: LC–MS quantification of intracellular accumulation, PΔ3-Pore; conditions: 10-80 µM; for Concentration slopes of accumulation, PΔ3-Pore_1 min: 1 min incubation; for Concentration slopes of accumulation, PΔ3-Pore_40min: 40 min incubation;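 for all read-outs here: slope of accumulation versus external concentration fitted as a line through zero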
# Experimental: (§2) PAO1-Pore and PΔ3-Pore were grown at 37 °C overnight with shaking at 225 rpm in 50 mM MOPS-M9 (pH 7.2) Minimal Medium supplemented with 1% glycerol[42],[43].
# (§3) The next day, cells were sub-cultured (1.5:100) in fresh MOPS-M9 medium and grown for 16 h. The cultures were then split into two flasks and one of them was induced with 0.1 mM IPTG. Cells incubated for additional 4 h until OD600 reached ~ 1.0 and harvested by centrifugation at 3,275xg for 20 min in RT, washed and concentrated 10X in the spent medium. Assays were performed in 96-well plates in a final volume of […]. Cells were incubated with 10, 20, 40, 80 µM of compounds and after 1- and 40-min incubation at RT, 100 µL cell aliquots were collected by vacuum filtration onto 1.0 µm Glass Fiber Type B filters. For no-cell controls, compounds were diluted to 10, 20, 40, 80 µM final concentration in the same medium, incubated for 1 min and 40 min and filtered onto the same plates. The cell loaded and cell-free filters were dried, removed from plates and placed into 100% methanol at -80 °C for at least 10 min. Filter-bound material was extracted by water bath sonication for 1 min. Cell and filter debris were separated by ultracentrifugation at 45,000 rpm (TLA55 rotor, Beckman) for 8 min at 16 °C and the pellet re-extracted with 80% methanol in water by sonication for 15 min followed by ultracentrifugation at the same conditions. Supernatants from two extractions were combined. For the compound quantification, 5 µL of solution was analyzed in triplicate.
# (§4) Calibration curves for MS analyses of compounds were generated in the same experiment by mixing compound at increasing concentrations with the sonicated PAO1 cell extracts. […] Azithromycin was used as a positive control in all experiments.
# (§5) Samples were processed in positive ion mode. An Eclipse plus C18 Rapid Resolution HD column (1.8 μm, 2.1 × 50 mm, Agilent, USA) was used for separation. The flow rate was 0.6 mL/min using the following gradient: 0 to 1 min (0- 20% ACN), 1 to 4 min (20- 80% ACN), 4 to 5.1 min (80–100% ACN), 5.1 to 6.30 (100% ACN). Solvents contained 0.1% formic acid to promote positive ion formation in the electrospray. […] Data were analyzed using Agilent Masshunter workstation quantitative analysis v. B.10 software.
# P. aeruginosa PΔ3 = assay: microbe, parasite or virus in culture; assay type: cell-based, Pseudomonas aeruginosa; conditions: Pseudomonas aeruginosa, read-out: MICs
# Experimental: as §1
# P. aeruginosa PAO1 cells = assay: LC–MS quantification of intracellular accumulation, PAO1; conditions: 10-80 µM; for Concentration slopes of accumulation, PAO1_1 min: 1 min incubation; for Concentration slopes of accumulation, PAO1_40 min: 40 min incubation;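 for all read-outs here: slope of accumulation versus external concentration fitted as a line through zero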
# Experimental: as §2, §3, §4, §5
# [2] = test system: P. aeruginosa PAO1-Pore cells; assay: LC–MS quantification of intracellular accumulation, PAO1-Pore; conditions: 10-80 µM; for Concentration slopes of accumulation, PAO1-Pore_1 min: 1 min incubation; for Concentration slopes of accumulation, PAO1-Pore_40 min: 40 min incubation;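 for all read-outs here: slope of accumulation versus external concentration fitted as a line through zero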
# Experimental: as §2, §3, §4, §5
# P. aeruginosa PAO1 = assay: MIC by two-fold dilution, wild type PAO1; assay type: cell-based, Pseudomonas aeruginosa; conditions: Pseudomonas aeruginosa
# Experimental: as §1
# P. aeruginosa PAO1-Pore = assay: MIC by two-fold dilution, hyperporinated PAO1-Pore; assay type: cell-based, Pseudomonas aeruginosa; conditions: for MICs: PAO1-Pore, LB broth, Table S2; for MIC: Pseudomonas aeruginosa, PAO1, read-out: MICs
# Experimental: as §1
# P. aeruginosa PΔ3 cells = conditions: 10-80 µM; for Concentration slopes of accumulation, PΔ3_1 min: 1 min incubation; for Concentration slopes of accumulation, PΔ3_40 min: 40 min incubation;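 for all read-outs here: slope of accumulation versus external concentration fitted as a line through zero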
# Experimental: as §2, §3, §4, §5
# P. aeruginosa = conditions: sheet "Good" permeators; all listed compounds are good permeators
# Experimental: The measured levels of compound accumulation were analyzed using machine learning to determine which features of the compounds are most important for enabling their cellular accumulation and to determine their optimal values. […] To accentuate the permeability aspect, the accumulation slopes in efflux-deficient and hyperporinated strains were normalized to those in the parental PAO1 strain.
# To help visualize the data, we performed a principal component (PC) decomposition of the data.
# [3] = PAO1, MOPS-M9 medium, read-out: MICs
SMILES,MIC (P. aeruginosa PΔ3-Pore),MICs (P. aeruginosa PΔ3-Pore),"Concentration slopes of accumulation, PΔ3-Pore_1 min [1]","Concentration slopes of accumulation, PΔ3-Pore_40min [1]",MIC (P. aeruginosa PΔ3),"Concentration slopes of accumulation, PAO1_1 min (P. aeruginosa PAO1 cells)","Concentration slopes of accumulation, PAO1_40 min (P. aeruginosa PAO1 cells)","Concentration slopes of accumulation, PAO1-Pore_1 min [2]","Concentration slopes of accumulation, PAO1-Pore_40 min [2]",MIC (P. aeruginosa PAO1; [3]),MICs (P. aeruginosa PAO1-Pore),MIC (P. aeruginosa PAO1-Pore),"Concentration slopes of accumulation, PΔ3_1 min (P. aeruginosa PΔ3 cells)","Concentration slopes of accumulation, PΔ3_40 min (P. aeruginosa PΔ3 cells)","MIC (P. aeruginosa PAO1; PAO1, read-out: MICs)","Cluster of the identified ""good"" permeators (P. aeruginosa)"
"CCN1CCN(c2cc3c(cc2F)c(=O)c(C(=O)O)cn3C2CC2)CC1 [OU-0000620, ENROFLOXACIN]",0.016 µM and 0.01 µg/mL,0.0039,26.71,29.82,0.5 µM and 0.18 µg/mL,18.49,16.52,26.71,27.91,2 µM and 0.7 µg/mL,0.25,0.0625 µM and 0.02 µg/mL,14.05,13.99,–,–
"CCn1cc(C(=O)O)c(=O)c2cc3c(cc21)OCO3 [OU-0000621, OXOLINIC ACID]",0.078 µM and 0.02 µg/mL,0.097,8.75,6.70,2.5 µM and 0.65 µg/mL,5.93,6.11,8.17,6.63,20 µM and 5.2 µg/mL,6.25,0.625 µM and 0.16 µg/mL,5.83,6.58,–,–
"CN1CCN(c2cc3c(cc2F)c(=O)c(C(=O)O)cn3-c2ccc(F)cc2)CC1 [OU-0000624, DIFLOXACIN]",0.0313 µM and 0.01 µg/mL,0.097,6.73,8.21,0.313 µM and 0.14 µg/mL,3.78,6.48,8.04,11.39,2.5 µM and 1.1 µg/mL,0.39,0.0625 µM and 0.03 µg/mL,4.42,5.02,–,–
"COc1c(N2C[C@@H]3CCCN[C@@H]3C2)c(F)cc2c(=O)c(C(=O)O)cn(C3CC3)c12 [OU-0000626, MOXIFLOXACIN HYDROCHLORIDE]",0.0313 µM and 0.01 µg/mL,0.024,2.26,4.78,0.27 µg/mL,1.19,2.06,3.02,7.25,2.5 µM and 1.1 µg/mL,0.39,0.03 µg/mL,1.39,2.61,–,–
"CC1CCc2c(N3CCC(O)CC3)c(F)cc3c(=O)c(C(=O)O)cn1c23 (stereo not drawn) [OU-0000628, nadifloxacin]",0.0156 µM and 0.01 µg/mL,0.0015,19.74,19.09,0.625 µM and 0.23 µg/mL,6.36,6.93,11.41,12.74,5 µM and 1.8 µg/mL,0.39,0.0625 µM and 0.02 µg/mL,9.00,9.79,–,–
COc1cnc(NS(=O)(=O)c2ccc(N)cc2)nc1 [OU-0000694],6.25 µM and 1.75 µg/mL,–,3.61,3.14,25 µM and 7 µg/mL,2.18,1.74,3.10,2.35,–,–,12.5 µM and 3.5 µg/mL,0.87,1.82,> 200 µM and > 56.1 µg/mL,–
"C[C@H]1COc2c(N3CCN(C)CC3)c(F)cc3c(=O)c(C(=O)O)cn1c23 [OU-0000806, Levofloxacin]",0.008 µM and 0.003 µg/mL,0.0039,3.52,5.77,0.25 µM and 0.2 µg/mL,3.66,5.59,6.98,7.94,0.5 µM and 0.18 µg/mL,0.25,0.031 µM and 0.011 µg/mL,2.43,5.63,–,–
"COc1cccc2c1C(=O)c1c(O)c3c(c(O)c1C2=O)C[C@@](O)(C(=O)CO)C[C@@H]3O[C@H]1C[C@H](N)[C@H](O)[C@H](C)O1 [OU-0000835, Doxorubicin]",3.2 µM and 1.7 µg/mL,25,1.89,2.13,25 µM and 13.6 µg/mL,1.38,0.84,3.78,–,200 µM and 109 µg/mL,100,12.5 µM and 6.8 µg/mL,1.32,1.10,–,–
C=CCN1CC(CCCC)N(C(=O)OC(C)(C)C)C(Cc2ccccc2)C1=O (stereo not drawn) [OU-0032511],–,–,4.38,4.27,–,–,–,4.02,4.09,–,–,–,4.08,3.52,–,1
COc1cc(NS(=O)(=O)c2ccc(N)cc2)nc(OC)n1 [Sulfadimethoxine],1.6 µM and 0.5 µg/mL,–,–,–,200 µM and 62.1 µg/mL,–,–,–,–,–,–,25 µM and 7.8 µg/mL,–,–,> 200 µM and 62.1 µg/mL,–
Nc1ccc(S(=O)(=O)Nc2ccnn2-c2ccccc2)cc1 [Sulfaphenazole],3.2 µM and 1 µg/mL,–,–,–,200 µM and 62.9 µg/mL,–,–,–,–,> 200 µM and > 62.9 µg/mL,–,12.5 µM and 3.9 µg/mL,–,–,–,–
Nc1ccc(S(=O)(=O)Nc2nccs2)cc1 [Sulfathiazole],1.6 µM and 0.4 µg/mL,–,–,–,6.25 µM and 1.6 µg/mL,–,–,–,–,50 µM and 12.8 µg/mL,–,3.2 µM and 0.8 µg/mL,–,–,–,–
Cc1noc(NS(=O)(=O)c2ccc(N)cc2)c1C [Sulfisoxazole],> 200 µM,–,–,–,> 200 µM,–,–,–,–,> 200 µM and > 53.7 µg/mL,–,> 200 µM,–,–,–,–
